Results reported in ChEMBL document CHEMBL5465560, “Selectivity Literature for EUbOPEN Chemogenomic Library” (2024).

What was measured:
[1] = molecular target: T1, Protein kinase C epsilon type (Homo sapiens) (UniProt Q02156); assay: Selectivity interaction (Millipore kinase profiler) EUB0000124b PRKCE; details: at 10 µM
T1 sequence (whole entry): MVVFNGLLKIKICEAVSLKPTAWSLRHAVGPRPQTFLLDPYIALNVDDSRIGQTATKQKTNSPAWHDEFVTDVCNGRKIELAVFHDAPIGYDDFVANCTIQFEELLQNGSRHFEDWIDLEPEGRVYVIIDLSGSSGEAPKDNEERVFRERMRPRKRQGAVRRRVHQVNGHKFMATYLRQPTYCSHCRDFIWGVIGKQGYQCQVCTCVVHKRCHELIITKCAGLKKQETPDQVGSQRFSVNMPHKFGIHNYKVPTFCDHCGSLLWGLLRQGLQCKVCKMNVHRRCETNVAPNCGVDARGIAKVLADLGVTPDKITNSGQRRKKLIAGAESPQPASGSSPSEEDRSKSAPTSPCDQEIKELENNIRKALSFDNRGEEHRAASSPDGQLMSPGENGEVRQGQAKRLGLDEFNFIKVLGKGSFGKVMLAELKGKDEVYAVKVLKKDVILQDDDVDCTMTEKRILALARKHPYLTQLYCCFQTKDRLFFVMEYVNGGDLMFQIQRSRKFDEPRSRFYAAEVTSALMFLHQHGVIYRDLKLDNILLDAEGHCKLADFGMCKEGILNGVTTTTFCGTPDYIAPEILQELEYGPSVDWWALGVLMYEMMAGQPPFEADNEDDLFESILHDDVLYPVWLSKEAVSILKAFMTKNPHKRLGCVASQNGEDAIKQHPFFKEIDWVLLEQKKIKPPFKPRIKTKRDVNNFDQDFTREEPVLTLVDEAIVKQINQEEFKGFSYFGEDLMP

[2] = molecular target: Tyrosine-protein kinase FRK (Homo sapiens) (UniProt P42685); assay: Selectivity interaction (KinaseProfiler screening (Millipore)) EUB0000601a FRK; details: at 3 µM
Sequence of Tyrosine-protein kinase FRK (Homo sapiens) (P42685 whole entry): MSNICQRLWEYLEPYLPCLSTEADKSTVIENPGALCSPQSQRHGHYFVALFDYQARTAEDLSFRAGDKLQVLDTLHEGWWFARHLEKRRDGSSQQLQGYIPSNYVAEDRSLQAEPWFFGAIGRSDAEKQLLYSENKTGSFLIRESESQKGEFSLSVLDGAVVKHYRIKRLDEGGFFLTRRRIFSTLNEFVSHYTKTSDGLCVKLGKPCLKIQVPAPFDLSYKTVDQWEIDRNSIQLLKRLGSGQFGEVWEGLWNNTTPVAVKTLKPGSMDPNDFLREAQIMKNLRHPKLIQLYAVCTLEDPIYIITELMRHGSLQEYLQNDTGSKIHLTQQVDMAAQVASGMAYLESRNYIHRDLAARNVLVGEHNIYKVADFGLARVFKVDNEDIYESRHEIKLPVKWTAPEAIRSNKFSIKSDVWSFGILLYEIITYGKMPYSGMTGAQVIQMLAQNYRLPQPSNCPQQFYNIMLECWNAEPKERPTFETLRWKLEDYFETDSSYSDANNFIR

[3] = molecular target: Protein arginine N-methyltransferase 3 (Homo sapiens, UniProt O60678); assay: Selectivity interaction (Transferase panel (protein, RNA, and DNA methyltransferases. and EP300 (acetyltransferase))) EUB0000270b PRMT3
Sequence of Protein arginine N-methyltransferase 3 (O60678 2-531 limits assumed): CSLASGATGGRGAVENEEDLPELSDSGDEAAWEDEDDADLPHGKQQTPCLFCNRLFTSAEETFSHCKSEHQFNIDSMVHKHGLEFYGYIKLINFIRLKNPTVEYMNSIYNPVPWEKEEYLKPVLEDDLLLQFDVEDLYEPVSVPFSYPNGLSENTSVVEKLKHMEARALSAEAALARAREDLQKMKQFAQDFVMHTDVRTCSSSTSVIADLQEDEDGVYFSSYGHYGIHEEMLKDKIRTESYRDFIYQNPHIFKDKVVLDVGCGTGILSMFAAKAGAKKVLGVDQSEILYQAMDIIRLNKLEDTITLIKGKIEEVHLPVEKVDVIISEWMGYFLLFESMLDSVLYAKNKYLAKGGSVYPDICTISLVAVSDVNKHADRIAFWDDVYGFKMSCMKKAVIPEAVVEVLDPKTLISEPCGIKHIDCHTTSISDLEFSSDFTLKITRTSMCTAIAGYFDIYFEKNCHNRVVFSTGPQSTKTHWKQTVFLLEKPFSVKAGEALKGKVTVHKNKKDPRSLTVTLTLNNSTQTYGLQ

[4] = molecular target: T2, Phosphatidylinositol 3-kinase C2 domain-containing subunit gamma (Homo sapiens) (UniProt O75747); assay: Selectivity interaction (KinomeScan (DiscoverX)) EUB0000655a PIK3C2G; details: at 10 µM
T2 sequence (whole entry): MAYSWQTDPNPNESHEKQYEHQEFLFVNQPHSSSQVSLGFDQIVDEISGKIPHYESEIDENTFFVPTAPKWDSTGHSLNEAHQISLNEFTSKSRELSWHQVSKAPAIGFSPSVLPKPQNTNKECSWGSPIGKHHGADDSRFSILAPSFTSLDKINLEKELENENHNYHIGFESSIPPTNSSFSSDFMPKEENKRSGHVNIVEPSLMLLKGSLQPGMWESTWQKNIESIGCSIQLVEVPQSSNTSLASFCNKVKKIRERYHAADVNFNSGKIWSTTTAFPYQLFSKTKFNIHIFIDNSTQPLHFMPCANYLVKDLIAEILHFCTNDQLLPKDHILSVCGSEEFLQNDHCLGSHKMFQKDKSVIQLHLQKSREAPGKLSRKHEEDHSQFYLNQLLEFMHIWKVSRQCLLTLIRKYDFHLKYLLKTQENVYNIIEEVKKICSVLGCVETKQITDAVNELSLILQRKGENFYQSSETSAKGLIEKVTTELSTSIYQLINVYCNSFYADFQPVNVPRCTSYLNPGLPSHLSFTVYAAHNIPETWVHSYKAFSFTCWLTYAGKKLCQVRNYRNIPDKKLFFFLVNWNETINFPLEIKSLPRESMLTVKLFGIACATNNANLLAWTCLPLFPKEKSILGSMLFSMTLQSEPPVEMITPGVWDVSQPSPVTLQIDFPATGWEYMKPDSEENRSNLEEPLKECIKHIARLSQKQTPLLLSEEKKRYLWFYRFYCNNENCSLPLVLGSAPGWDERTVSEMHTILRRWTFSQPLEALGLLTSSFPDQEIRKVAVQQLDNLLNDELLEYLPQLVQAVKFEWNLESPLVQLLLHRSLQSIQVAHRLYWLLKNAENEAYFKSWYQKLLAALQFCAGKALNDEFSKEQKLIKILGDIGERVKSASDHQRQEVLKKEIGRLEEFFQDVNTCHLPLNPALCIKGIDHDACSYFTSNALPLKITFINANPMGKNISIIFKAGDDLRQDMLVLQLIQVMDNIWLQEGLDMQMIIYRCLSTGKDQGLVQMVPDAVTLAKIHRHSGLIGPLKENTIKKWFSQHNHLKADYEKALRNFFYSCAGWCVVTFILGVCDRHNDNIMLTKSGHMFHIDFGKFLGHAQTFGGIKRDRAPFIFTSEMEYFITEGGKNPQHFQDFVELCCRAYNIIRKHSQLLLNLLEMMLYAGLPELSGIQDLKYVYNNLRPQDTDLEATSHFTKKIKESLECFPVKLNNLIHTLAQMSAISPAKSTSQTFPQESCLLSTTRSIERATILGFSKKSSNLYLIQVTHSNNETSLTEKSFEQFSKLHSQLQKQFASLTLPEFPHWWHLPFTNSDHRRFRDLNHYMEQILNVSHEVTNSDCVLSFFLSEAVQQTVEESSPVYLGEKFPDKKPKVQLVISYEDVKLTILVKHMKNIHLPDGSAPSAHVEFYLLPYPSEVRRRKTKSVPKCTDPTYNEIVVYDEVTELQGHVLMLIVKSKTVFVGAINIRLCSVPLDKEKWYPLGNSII

Q: Which % of control [1] does the source give for `CC(=O)Nc1cccc(-n2c(=O)n(C3CC3)c(=O)c3c(Nc4ccc(I)cc4F)n(C)c(=O)c(C)c32)c1` here?
A: 103%

Q: How did the % of inhibition [2] turn out when `CCc1cc(Nc2nccc(-c3c(-c4ccc(OC)c(C(=O)Nc5c(F)cccc5F)c4)nc4ccccn34)n2)c(OC)cc1N1CCC(N2CCN(S(C)(=O)=O)CC2)CC1` was run?
A: 97%

Q: `Cc1cc(CN)cc(C)c1-c1ncn(C)c1-c1cncn1C` was tested. Which % activity ([3]; at 1 µM) did it give?
A: > 90%

Q: And the % activity ([3]; at 10 µM)?
A: > 80%

Q: How did the % of control [4] turn out when `CN(C)CCOc1ccc(-c2nc(-c3ccncc3)c(-c3ccc4c(c3)CC/C4=N\O)[nH]2)cc1` was run?
A: 55%
